The results in this text go back to DBAASP.

Among the test systems are Ascochyta pisi; Aerococcus viridans; Trichoderma viride; Fusarium haematococcum; Pediococcus acidilactici; Micrococcus luteus; Alternaria brassicicola; Neurospora crassa; Bacillus megaterium; Fusarium culmorum; Botrytis cinerea; Staphylococcus aureus 38; Staphylococcus aureus 31; Bacillus subtilis; Candida albicans SC5314.
What all share (test): ≥ marks a high value that may be exact or a test limit, other limits are often not marked, values filed in µg/mL are converted to µM
Test [1] relates to Candida albicans KCTC 7270.
For test [2], the system named is Trichosporon beigelii KCTC 7707.
Test [3] relates to Staphylococcus epidermidis ATCC 12228.
Test [4] has as its system Salmonella typhimurium KCTC 1926.
Test [5] relates to Staphylococcus aureus ATCC 25923.
The test system of test [6] is Aspergillus flavus KCTC 6905.
The test system of test [7] is Bacillus subtilis KCTC 1998.
Test [8] relates to Pseudomonas aeruginosa ATCC 15692.
The subject of test [9] is Aspergillus awamori KCTC 6915.
The test system of test [10] is Aspergillus fumigatus KCTC 6145.
For test [11], the system named is Escherichia coli ATCC 25922.
The test system of test [12] is Listeria monocytogenes KCTC 3710.
Test [13] has as its system Aspergillus parasiticus KCTC 6598.
In test [14] the test system is Proteus vulgaris KCTC 2433.
The subject of test [15] is Escherichia coli CIP 76.24.
Test [16] relates to Staphylococcus aureus CIP 53.156.
Test [17] deals with Pseudomonas aeruginosa ATCC 19660.
Test [18] relates to Pseudomonas aeruginosa 37.
Test [19] deals with Staphylococcus aureus ATCC 6538.
Test [20] relates to Pseudomonas aeruginosa 6206.
Test [21] has as its system Pseudomonas aeruginosa 6294.
Test [22] deals with Pseudomonas aeruginosa ATCC 27853.
Test [23] relates to Xanthomonas oryzae pv. oryzae.
Test [24] relates to Escherichia coli DH5alpha.
Test [25] deals with Xanthomonas campestris pv. campestris.
In test [26] the test system is Cryptococcus neoformans var. grubii H99.
The subject of test [27] is Candida albicans 08022710.
Test [28] deals with Candida albicans 08032815.
Test [29] concerns Candida albicans ATCC 2002.
Test [30] concerns Staphylococcus aureus ATCC 2592.
The test system of test [31] is Candida albicans 08022821.
Test [32] has as its system Candida albicans 08030809.

≈ marks a conversion by molar mass, not a printed value. Bounds are passed on as bounds.

Turning to `CC[C@H](C)[C@H](NC(=O)[C@H](CCCCN)NC(=O)[C@H](CCCCN)NC(=O)[C@H](C)NC(=O)[C@H](CC(C)C)NC(=O)[C@H](CCCCN)NC(=O)[C@H](CCCCN)NC(=O)[C@H](CC(C)C)NC(=O)[C@H](CCCN=C(N)N)NC(=O)[C@H](CCCCN)NC(=O)[C@@H](N)Cc1ccccc1)C(=O)N[C@@H](Cc1c[nH]c2ccccc12)C(=O)N[C@@H](CC(N)=O)C(=O)N[C@@H](Cc1c[nH]c2ccccc12)C(=O)N[C@@H](CCCCN)C(N)=O` [FKRLKKLAKKIWNWK], the MIC (usually the lowest concentration found to suppress growth) came to 8 µM (≈ 15.9 µg/mL) in [1]; 16 µM (≈ 31.8 µg/mL) in test [2]; 2.83 µM (≈ 5.62 µg/mL) in [3]; 2 µM (≈ 3.97 µg/mL) in test [4]; 4 µM (≈ 7.95 µg/mL) in test [5]; 16 µM (≈ 31.8 µg/mL) in test [6]. Further, the minimum inhibitory concentration (MIC) in test [7] was determined as 4 µM (≈ 7.95 µg/mL); in test [8], 2 µM (≈ 3.97 µg/mL); in test [9], 16 µM (≈ 31.8 µg/mL); in [10], 8 µM (≈ 15.9 µg/mL); in test [11], 4 µM (≈ 7.95 µg/mL); in [12] it was 2 µM (≈ 3.97 µg/mL). In addition, the MIC in test [13] was 8 µM (≈ 15.9 µg/mL); in test [14] it was 4 µM (≈ 7.95 µg/mL).

For the compound `CC[C@H](C)[C@H](NC(=O)[C@@H](NC(=O)[C@@H]1CCCN1C(=O)[C@@H](NC(=O)[C@@H]1CCCN1C(=O)[C@H](CCCCN)NC(=O)[C@H](CCCCN)NC(=O)[C@H](CO)NC(=O)CN)C(C)C)[C@@H](C)CC)C(=O)N[C@@H](Cc1ccc(O)cc1)C(=O)N[C@H]1CSSC[C@@H](C(=O)O)NC(=O)[C@H](CCCCN)NC(=O)CNC(=O)[C@H]([C@@H](C)O)NC(=O)[C@H](CCCN=C(N)N)NC(=O)[C@H](CCCN=C(N)N)NC(=O)[C@H](CC(N)=O)NC1=O` [GSKKPVPIIYCNRRTGKC], the minimum inhibitory concentration (MIC) against Ascochyta pisi was 28.3 µM (≈ 57.1 µg/mL); against Aerococcus viridans it was 3.54 µM (≈ 7.14 µg/mL); against Trichoderma viride, 28.3 µM (≈ 57.1 µg/mL); in the test on Fusarium haematococcum, 7.07 µM (≈ 14.3 µg/mL); in the test on Pediococcus acidilactici it was 28.3 µM (≈ 57.1 µg/mL); with Micrococcus luteus, 7.07 µM (≈ 14.3 µg/mL). Besides, the MIC against Alternaria brassicicola was 7.07 µM (≈ 14.3 µg/mL); in the test on Neurospora crassa, 14.1 µM (≈ 28.5 µg/mL); against Bacillus megaterium it was 7.07 µM (≈ 14.3 µg/mL); with Fusarium culmorum, 14.1 µM (≈ 28.5 µg/mL); against Botrytis cinerea it was 7.07 µM (≈ 14.3 µg/mL).

Turning to `CC[C@H](C)[C@H](N)C(=O)N1CCC[C@H]1C(=O)N[C@@H](Cc1c[nH]c2ccccc12)C(=O)NCC(=O)N[C@@H](CCCCN)C(=O)N[C@H](C(=O)N[C@@H](CCCCN)C(=O)N[C@@H](CC(=O)O)C(=O)N[C@@H](Cc1ccccc1)C(=O)N[C@@H](CC(C)C)C(=O)N[C@H](C(=O)NCC(=O)NCC(=O)N[C@@H](CCSC)C(=O)N[C@@H](CCCCN)C(=O)N[C@@H](C)C(=O)N[C@H](C(N)=O)C(C)C)C(C)C)C(C)C` [IPWGKVKDFLVGGMKAV], the results for the MIC in [15] and in [16] were not below 49 µM and 9 µM (≈ 16.6 µg/mL), respectively.

On to `CC[C@H](C)[C@H](NC(=O)[C@H](Cc1c[nH]c2ccccc12)NC(=O)[C@H](CO)NC(=O)[C@@H](NC(=O)[C@H](CC(C)C)NC(=O)[C@@H](N)[C@@H](C)O)[C@@H](C)CC)C(=O)N[C@@H](CCCCN)C(=O)N[C@@H](CC(N)=O)C(=O)N[C@@H](CCCCN)C(=O)N[C@@H](CCCN=C(N)N)C(=O)N[C@@H](CCCCN)C(=O)N[C@@H](CCC(N)=O)C(=O)N[C@@H](CCCN=C(N)N)C(=O)N1CCC[C@H]1C(=O)N[C@@H](CCCN=C(N)N)C(=O)N[C@H](C(=O)N[C@@H](CO)C(=O)N[C@@H](CCCN=C(N)N)C(=O)N[C@@H](CCCN=C(N)N)C(=O)N[C@@H](CCCN=C(N)N)C(=O)N[C@@H](CCCN=C(N)N)C(=O)N[C@@H](CCCN=C(N)N)C(=O)N[C@@H](CCCN=C(N)N)C(=O)NCC(=O)NCC(=O)N[C@@H](CCCN=C(N)N)C(=O)N[C@@H](CCCN=C(N)N)C(=O)N[C@@H](CCCN=C(N)N)C(=O)N[C@@H](CCCN=C(N)N)C(=O)O)C(C)C` [TLISWIKNKRKQRPRVSRRRRRRGGRRRR], for which the minimum inhibitory concentration (MIC) in test [17] was not below 132 µM; in test [18], not below 33 µM; in the test with Staphylococcus aureus 38, not below 33 µM; in test [19] it was 16.5 µM (≈ 62.5 µg/mL); in test [20], not below 66 µM; in test [21], not below 66 µM. In the test on Staphylococcus aureus 31, this compound had an MIC not below 33 µM.

Turning to `CC(C)C[C@H](NC(=O)CNC(=O)[C@H](CS)NC(=O)CNC(=O)[C@H](CC(N)=O)NC(=O)CNC(=O)[C@H](Cc1c[nH]c2ccccc12)NC(=O)CNC(=O)[C@H](CCCN=C(N)N)NC(=O)[C@H](CC(=O)O)NC(=O)[C@@H](N)C(C)C)C(=O)N[C@@H](Cc1ccccc1)C(=O)NCC(=O)N[C@@H](CCCCN)C(=O)NCC(=O)NCC(=O)O` [VDRGWGNGCGLFGKGG], the minimum inhibitory concentration (MIC) is more than 100 µM in test [22]; not below 100 µM in test [23]; not below 100 µM in test [24]; not below 100 µM in test [25]; not below 100 µM in [26]; not below 100 µM against Bacillus subtilis. Also, the MIC against Candida albicans SC5314 is not below 100 µM.

In the case of `CC(C)[C@H](N)C(=O)N[C@@H](CCCCN)C(=O)N[C@@H](CCCN=C(N)N)C(=O)N[C@@H](Cc1c[nH]c2ccccc12)C(=O)N[C@@H](CCCCN)C(=O)N[C@@H](CCCCN)C(=O)N[C@@H](Cc1c[nH]c2ccccc12)C(=O)N[C@@H](CCCN=C(N)N)C(=O)N[C@@H](Cc1c[nH]c2ccccc12)C(=O)N[C@@H](CCCCN)C(=O)N[C@@H](Cc1c[nH]c2ccccc12)C(=O)N[C@@H](CCCCN)C(=O)N[C@@H](CCCCN)C(=O)N[C@@H](Cc1c[nH]c2ccccc12)C(=O)N[C@H](C(N)=O)C(C)C` [VKRWKKWRWKWKKWV], the MIC worked out at 2.1 µM (≈ 4.69 µg/mL) in test [27]; 1.25 µM (≈ 2.79 µg/mL) in [28]; 0.265 µM (≈ 0.59 µg/mL) in test [29]; 0.525 µM (≈ 1.17 µg/mL) in test [30]; 1.4 µM (≈ 3.13 µg/mL) in test [31]; 0.628 µM (≈ 1.4 µg/mL) in test [32]. Moreover, the minimal inhibitory concentration (MIC) turned out to be 4.21 µM (≈ 9.38 µg/mL) in test [11] and 0.525 µM (≈ 1.17 µg/mL) in the test on Bacillus subtilis.
